Experimental data taken from ChEMBL document CHEMBL5380848, “Novel Benzo Five-Membered Heterocycle Derivatives as P-Glycoprotein Inhibitors: Design, Synthesis, Molecular Docking, and Anti-Multidrug Resistance Activity” (J Med Chem, 2023).
Active and inactive are the calls of the source. No cut-off for these calls is given here.

Tests used:
[1] = test system: MCF7; assay: Cytotoxicity against human MCF7 cells assessed as inhibition rate at 5 uM measured after […] hrs by CCK-8 assay relative to control; assay type: functional
[2] = test system: NCI/ADR-RES; assay: Cytotoxicity against doxorubicin-resistant human MCF-7/ADR cells assessed as inhibition rate at 5 uM measured after […] hrs by CCK-8 assay relative to control; assay type: functional
[3] = molecular target: T1, ATP-dependent translocase ABCB1 (Homo sapiens, UniProt P08183); assay: Inhibition of P-gp-mediated multidrug resistance in doxorubicin-resistant human MCF7/ADR cells assessed as fold reversal of resistance by measuring doxorubicin IC50 incubated for 48 hrs by CCK-8 assay relative to doxorubicin IC50 in absence of compound; assay type: cell-based; conditions: nci-adr-res
T1 sequence (P08183 whole entry): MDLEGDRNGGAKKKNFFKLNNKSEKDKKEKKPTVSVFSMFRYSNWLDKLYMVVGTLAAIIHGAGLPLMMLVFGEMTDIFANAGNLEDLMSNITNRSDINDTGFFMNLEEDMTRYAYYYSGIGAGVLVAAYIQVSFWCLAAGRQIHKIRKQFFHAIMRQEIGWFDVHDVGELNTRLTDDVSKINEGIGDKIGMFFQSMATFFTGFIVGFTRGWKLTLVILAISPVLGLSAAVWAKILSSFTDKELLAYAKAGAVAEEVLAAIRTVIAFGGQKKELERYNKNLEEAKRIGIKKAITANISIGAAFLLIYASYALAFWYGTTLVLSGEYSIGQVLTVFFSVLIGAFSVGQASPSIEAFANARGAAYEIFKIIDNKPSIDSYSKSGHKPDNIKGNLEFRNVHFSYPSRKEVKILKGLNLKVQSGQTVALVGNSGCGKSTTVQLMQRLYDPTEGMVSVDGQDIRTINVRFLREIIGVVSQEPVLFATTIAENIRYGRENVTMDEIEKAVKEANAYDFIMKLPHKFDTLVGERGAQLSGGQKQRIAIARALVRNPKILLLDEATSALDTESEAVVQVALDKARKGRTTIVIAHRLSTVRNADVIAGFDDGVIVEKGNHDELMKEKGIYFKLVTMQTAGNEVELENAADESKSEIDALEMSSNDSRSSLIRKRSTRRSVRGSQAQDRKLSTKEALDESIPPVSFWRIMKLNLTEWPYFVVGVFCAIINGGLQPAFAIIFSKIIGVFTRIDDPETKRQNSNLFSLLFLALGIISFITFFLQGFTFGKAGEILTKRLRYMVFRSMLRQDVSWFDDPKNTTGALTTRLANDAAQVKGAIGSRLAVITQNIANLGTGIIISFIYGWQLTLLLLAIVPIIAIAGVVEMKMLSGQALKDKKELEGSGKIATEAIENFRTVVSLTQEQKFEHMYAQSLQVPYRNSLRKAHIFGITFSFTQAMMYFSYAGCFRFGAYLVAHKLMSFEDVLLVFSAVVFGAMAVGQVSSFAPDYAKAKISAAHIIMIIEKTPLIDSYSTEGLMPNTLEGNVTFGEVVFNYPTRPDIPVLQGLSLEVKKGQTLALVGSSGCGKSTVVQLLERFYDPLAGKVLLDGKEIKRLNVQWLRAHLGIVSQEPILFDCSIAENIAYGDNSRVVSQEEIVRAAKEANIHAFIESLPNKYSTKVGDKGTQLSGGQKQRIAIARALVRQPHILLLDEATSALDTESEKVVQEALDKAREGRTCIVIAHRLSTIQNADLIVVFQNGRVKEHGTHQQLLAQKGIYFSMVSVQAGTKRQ

[4] = Toxicity in BALB/c mouse xenografted with doxorubicin-resistant human MCF-7/ADR cells assessed as kidney morphological changes at 10 mg/kg for every 2 days once injected through abdominal cavity for 14 days by hematoxylin and eosin staining based analysis; assay type: organism-based; conditions: in vivo, ip, 336 h, time 14 day
[5] = Toxicity in BALB/c mouse xenografted with doxorubicin-resistant human MCF-7/ADR cells assessed as spleen morphological changes at 10 mg/kg for every 2 days once injected through abdominal cavity for 14 days by hematoxylin and eosin staining based analysis; assay type: organism-based; conditions: in vivo, ip, 336 h, time 14 day
[6] = test system: NCI/ADR-RES; assay: Effect on ABCG2 gene expression in doxorubicin-resistant human MCF-7/ADR cells at 5 uM incubated for 12 hrs; assay type: functional, cell-based
[7] = Toxicity in BALB/c mouse xenografted with doxorubicin-resistant human MCF-7/ADR cells assessed as heart morphological changes at 10 mg/kg for every 2 days once injected through abdominal cavity for 14 days by hematoxylin and eosin staining based analysis; assay type: organism-based; conditions: in vivo, ip, 336 h, time 14 day
[8] = test system: NCI/ADR-RES; assay: In vivo resistance reversal activity in doxorubicin-resistant human MCF-7/ADR cells xenografted in BALB/c mouse model assessed as potentiation of doxorubicin antitumor effect by measuring reduction in tumor weight at 10 mg/kg for every 2 days once injected through abdominal cavity for 14 days; assay type: functional, organism-based; conditions: time 14.0 day
[9] = test system: NCI/ADR-RES; assay: In vivo resistance reversal activity in doxorubicin-resistant human MCF-7/ADR cells xenografted in BALB/c mouse model assessed as potentiation of doxorubicin antitumor effect by measuring reduction in tumor volume at 10 mg/kg for every 2 days once injected through abdominal cavity for 14 days; assay type: functional, organism-based; conditions: time 14.0 day
[10] = Toxicity in BALB/c mouse xenografted with doxorubicin-resistant human MCF-7/ADR cells assessed as lung morphological changes at 10 mg/kg for every 2 days once injected through abdominal cavity for 14 days by hematoxylin and eosin staining based analysis; assay type: organism-based; conditions: in vivo, ip, 336 h, time 14 day
[11] = test system: NCI/ADR-RES; assay: Effect on ABCB6 gene expression in doxorubicin-resistant human MCF-7/ADR cells at 5 uM incubated for 12 hrs; assay type: functional, cell-based
[12] = test system: NCI/ADR-RES; assay: Effect on ABCF2 gene expression in doxorubicin-resistant human MCF-7/ADR cells at 5 uM incubated for 12 hrs; assay type: functional, cell-based
[13] = test system: NCI/ADR-RES; assay: In vivo resistance reversal activity in doxorubicin-resistant human MCF-7/ADR cells xenografted in BALB/c mouse model assessed as reduction in tumor weight at 10 mg/kg for every 2 days once injected through abdominal cavity for 14 days; assay type: functional, organism-based; conditions: time 14.0 day
[14] = test system: NCI/ADR-RES; assay: In vivo resistance reversal activity in doxorubicin-resistant human MCF-7/ADR cells xenografted in BALB/c mouse model assessed as reduction in tumor volume at 10 mg/kg for every 2 days once injected through abdominal cavity for 14 days; assay type: functional, organism-based; conditions: time 14.0 day
[15] = molecular target: T1, ATP-dependent translocase ABCB1; assay: Inhibition of P-glycoprotein mediated Rhodamine-123 efflux in doxorubicin-resistant human MCF-7/ADR cells assessed as fluorescence intensity of rhodamine-123 accumulation incubated for 30 mins by flow cytometry analysis; assay type: cell-based; conditions: nci-adr-res, 0.5 h, at 2.5 to 10 µM, dose 2.5-10 µM
[16] = Toxicity in BALB/c mouse xenografted with doxorubicin-resistant human MCF-7/ADR cells assessed as body weight change at 10 mg/kg for every 2 days once injected through abdominal cavity for 14 days; assay type: organism-based; conditions: in vivo, ip, 336 h, time 14 day
[17] = test system: NCI/ADR-RES; assay: Effect on P-glycoprotein expression in doxorubicin-resistant human MCF-7/ADR cells at 2.5 to 10 uM incubated for 48 hrs by Western blotting analysis; assay type: functional, cell-based; conditions: dose 2.5-10 µM
[18] = test system: NCI/ADR-RES; assay: Effect on ABCC4 gene expression in doxorubicin-resistant human MCF-7/ADR cells at 5 uM incubated for 12 hrs; assay type: functional, cell-based
[19] = Toxicity in BALB/c mouse xenografted with doxorubicin-resistant human MCF-7/ADR cells assessed as liver morphological changes at 10 mg/kg for every 2 days once injected through abdominal cavity for 14 days by hematoxylin and eosin staining based analysis; assay type: organism-based; conditions: in vivo, ip, 336 h, time 14 day
[20] = test system: NCI/ADR-RES; assay: Effect on ABCA2 gene expression in doxorubicin-resistant human MCF-7/ADR cells at 5 uM incubated for 12 hrs; assay type: functional, cell-based
[21] = molecular target: T1, ATP-dependent translocase ABCB1; assay: Binding affinity to P-glycoprotein in doxorubicin-resistant human MCF-7/ADR cells assessed as thermal stability measured 40 to 60 degC at 0.5 to 2.5 uM incubated for 30 mins by CETSA; assay type: cell-based; conditions: nci-adr-res, 0.5 h, dose 0.5-2.5 µM
[22] = test system: NCI/ADR-RES; assay: Effect on ABCC1 gene expression in doxorubicin-resistant human MCF-7/ADR cells at 5 uM incubated for 12 hrs; assay type: functional, cell-based
[23] = test system: NCI/ADR-RES; assay: Effect on ABCD4 gene expression in doxorubicin-resistant human MCF-7/ADR cells at 5 uM incubated for 12 hrs; assay type: functional, cell-based

| fold change (FC) [3] | Structure (SMILES) | inhibition at 5 µM [1] | inhibition at 5 µM [2] | also measured |
| --- | --- | --- | --- | --- |
| 93.6 | COc1cc2c(cc1OC)CN(C(=O)c1cc3cc(-c4ccc(NC(=O)c5cc(OC)c(OC)c(OC)c5)cc4)ccc3[nH]1)CC2 | 14.1% | 10.6% | – |
| 118.6 | COc1cc2c(cc1OC)CN(C(=O)c1cc3cc(-c4ccc(NC(=O)c5ccc(Cl)cc5)cc4)ccc3n1Cc1cccc(Br)c1)CC2 | 7.9% | 21.6% | – |
| 16.1 | COc1cc2c(cc1OC)CN(C(=O)c1cc3cc(-c4ccc(NC(=O)c5ccccc5OC)cc4)ccc3[nH]1)CC2 | 20.7% | -2.9% | – |
| 10.4 | COc1cc2c(cc1OC)CN(C(=O)c1cc3cc(-c4ccc(NC(=O)c5ccc(Cl)cc5)cc4)ccc3n1Cc1ccccc1C(F)(F)F)CC2 | 19.3% | 8.6% | – |
| 37.6 | COc1cc2c(cc1OC)CN(C(=O)c1cc3cc(-c4ccc(NC(=O)c5ccc(Cl)cc5)cc4)ccc3n1Cc1cccc(F)c1)CC2 | 1.7% | -2.6% | – |
| 83 | COc1cc2c(cc1OC)CN(C(=O)c1cc3cc(-c4ccc(NC(=O)c5ccc(I)cc5)cc4)ccc3[nH]1)CC2 | 15.4% | 12.9% | – |
| 25.9 | COc1cc2c(cc1OC)CN(C(=O)c1cc3cc(-c4ccc(NC(=O)c5ccc(Cl)cc5)cc4)ccc3n1Cc1ccc([N+](=O)[O-])cc1)CC2 | 19.1% | 12.8% | – |
| 78 | COc1ccc(C(=O)Nc2ccc(-c3ccc4[nH]c(C(=O)N5CCc6cc(OC)c(OC)cc6C5)cc4c3)cc2)cc1 | 19.6% | 23.9% | – |
| 29 | COc1cc2c(cc1OC)CN(C(=O)c1cc3cc(-c4ccc(NC(=O)c5ccc(Cl)cc5)cc4)ccc3n1Cc1ccc(C(F)(F)F)cc1)CC2 | 15.5% | 12.6% | – |
| 39.9 | COc1cc2c(cc1OC)CN(C(=O)c1cc3cc(-c4ccc(NC(=O)c5ccc(Cl)cc5)cc4)ccc3n1Cc1cccc(C(F)(F)F)c1)CC2 | 8.5% | 6.3% | – |
| 486.9 | COc1ccc(C(=O)Nc2ccc(-c3ccc4[nH]c(C(=O)N5CCc6cc(OC)c(OC)cc6C5)cc4c3)cc2)cc1OC | 20.6% | 37.2% | – |
| 92.1 | COc1cc2c(cc1OC)CN(C(=O)c1cc3cc(-c4ccc(NC(=O)c5ccc(Cl)cc5)cc4)ccc3n1Cc1ccccc1F)CC2 | 5.3% | 14.3% | – |
| 105.6 | COc1ccc(Cn2c(C(=O)N3CCc4cc(OC)c(OC)cc4C3)cc3cc(-c4ccc(NC(=O)c5ccc(Cl)cc5)cc4)ccc32)cc1 | 3.2% | 18.1% | – |
| 431.5 | COc1cc2c(cc1OC)CN(C(=O)c1cc3cc(-c4ccc(NC(=O)c5cccc(Cl)c5)cc4)ccc3[nH]1)CC2 | 12% | 17.7% | – |

Second part, the compound before the results:

| Structure (SMILES) | fold change (FC) [3] | inhibition at 5 µM [1] | inhibition at 5 µM [2] | also measured |
| --- | --- | --- | --- | --- |
| COc1cc2c(cc1OC)CN(C(=O)c1cc3cc(-c4ccc(NC(=O)c5ccc(OC(C)(C)C)cc5)cc4)ccc3[nH]1)CC2 | 96.6 | 15.9% | 8.8% | – |
| COc1cc2c(cc1OC)CN(C(=O)c1cc3cc(-c4ccc(NC(=O)c5ccccc5F)cc4)ccc3[nH]1)CC2 | 469.8 | 13.9% | 18.7% | – |
| COc1cc2c(cc1OC)CN(C(=O)c1cc3cc(-c4ccc(NC(=O)c5ccc(Br)cc5)cc4)ccc3[nH]1)CC2 | 201.7 | 10.2% | 19.1% | – |
| COc1cc2c(cc1OC)CN(C(=O)c1cc3cc(-c4ccc(NC(=O)c5ccc(Cl)cc5)cc4)ccc3n1Cc1cc(C(F)(F)F)cc(C(F)(F)F)c1)CC2 | 40.9 | 3.8% | 1.9% | – |
| COc1cccc(Cn2c(C(=O)N3CCc4cc(OC)c(OC)cc4C3)cc3cc(-c4ccc(NC(=O)c5ccc(Cl)cc5)cc4)ccc32)c1 | 26.5 | 5% | 5% | – |
| COc1cc2c(cc1OC)CN(C(=O)c1cc3cc(-c4ccc(NC(=O)c5ccc(C(F)(F)F)cc5)cc4)ccc3[nH]1)CC2 | 1717 | 11.8% | 22% | – |
| COc1cc2c(cc1OC)CN(C(=O)c1cc3cc(-c4ccc(NC(=O)c5ccc(C#N)cc5)cc4)ccc3[nH]1)CC2 | 39.1 | 10.7% | 19.5% | – |
| COc1cc2c(cc1OC)CN(C(=O)c1cc3cc(-c4ccc(NC(=O)c5ccc(Cl)cc5)cc4)ccc3[nH]1)CC2 | 6011 | 21.7% | 25% | Activity [4]: Non-Toxic; Activity [5]: Non-Toxic; Activity [6]: inactive; Activity [7]: Non-Toxic; Activity [8]: Active; Activity [9]: Active; Activity [10]: Non-Toxic; Activity [11]: inactive; Activity [12]: inactive; Activity [13]: inactive; Activity [14]: inactive; inhibition (INH) [15]: Dose-Dependent Effect; Activity [16]: Non-Toxic; Activity [17]: inactive; Activity [18]: inactive; Activity [19]: Non-Toxic; Activity [20]: inactive; Activity [21]: Active; Activity [22]: inactive; Activity [23]: inactive |
| COc1cc2c(cc1OC)CN(C(=O)c1cc3cc(-c4ccc(NC(=O)c5ccc(Cl)cc5)cc4)ccc3n1Cc1ccccc1Cl)CC2 | 30.3 | 13.4% | 18.6% | – |
| COc1cc2c(cc1OC)CN(C(=O)c1cc3cc(-c4ccc(NC(=O)c5ccc(F)cc5)cc4)ccc3[nH]1)CC2 | 3628.7 | 52.8% | 50.4% | – |
| COc1cccc(C(=O)Nc2ccc(-c3ccc4[nH]c(C(=O)N5CCc6cc(OC)c(OC)cc6C5)cc4c3)cc2)c1 | 325.9 | 11.4% | 18.9% | – |
| COc1cc2c(cc1OC)CN(C(=O)c1cc3cc(-c4ccc(NC(=O)c5ccc(Cl)cc5)cc4)ccc3n1Cc1ccc(Cl)cc1)CC2 | 25.9 | 2.6% | -3.3% | – |
| COc1cc2c(cc1OC)CN(C(=O)c1cc3cc(-c4ccc(NC(=O)c5ccccc5Cl)cc4)ccc3[nH]1)CC2 | 241.9 | 12.7% | 12.4% | – |
| COc1cc2c(cc1OC)CN(C(=O)c1cc3cc(-c4ccc(NC(=O)c5ccc(Cl)cc5)cc4)ccc3n1Cc1ccc(Br)cc1)CC2 | 31.1 | 3.5% | -13.8% | – |
